Assay results from US20170367338A1, “COMPOSITIONS AND METHODS FOR IMPROVING AGRONOMIC CHARACTERISTICS OF PLANTS” (MONSANTO TECHNOLOGY LLC, priority 2014, published 2017).
Where two headings read alike, the source gives them in different places. Marks after values point to notes of the source that are not given here.

How the values were obtained:
caspase-3 = assay: Caspase-3 activity in H4IIE cells (DEVD-AMC); format: cell-based; details: rat hepatoma derived H4IIE cells, concentrations up to 300 μM
Experimental: To evaluate whether the compound classes of this invention are able to induce apoptosis, caspase-3 activity was determined after compound exposure in rat hepatoma derived H4IIE cells using a caspase substrate (DEVD, Asp-Glu-Val-Asp) labeled with a fluorescent molecule, 7-Amino-4-methylcoumarin (AMC). Caspase 3 cleaves the tetrapeptide between D and AMC, thus releasing the fluorogenic […] AMC. Following the test article exposure to cells in 96-well plates, medium was aspirated from plates and PBS added to each well. Plates were stored at −80° C. to lyse cells and store samples until further analysis. On the day of analysis, plates were removed from freezer and thawed. Caspase buffer with fluorescent substrate was added to each well and incubated at room temperature for one hour. AMC release was measured in a spectrofluorometer at an excitation wavelength of 360 nm and an emission wavelength of 460 nm. Values are expressed as relative fluorescent units (RFU).

root knot nematode (RKN) = assay: RKN greenhouse soil assay on cucumber plants; format: in vivo; details: for percent control (galling reduction) relative to the control blank treatment: 0 day treatment
Excerpt: Cucumber seeds are planted in a sandy soil mixture in two inch square plastic pots. When the cotyledons are fully opened and just as the first leaf begins to emerge, usually 7 days after planting, chemistry for the 7 day treatment is applied. One week later the chemistry for the 0 day treatment is applied. Separate plants are used for each application. The plants are generally in the 1-2 leaf stage now. At least four hours after the chemistry application the pots are inoculated with root knot nematode (RKN) eggs. Plants are rated for galling 14 days after the egg inoculation.
One milligram of chemistry per four pots is equal to one kilogram per hectare of chemical. A standard test uses four replications. For rates above 2 kg/ha, the desired amount of chemical is weighed into a 30 ml vial (example: 8 kg/ha rate =8 mg chemical in 30 ml vial). The chemical is dissolved in 2 ml of appropriate solvent, generally acetone. For rates below 2 kg/ha, 2 milligrams of chemistry is weighed into the vial and dissolved in 2 ml of the solvent. The appropriate amount of chemical concentrate is then pipetted into a separate 30 ml vial and solvent is added to bring the volume to 2 ml (example 0.5 kg/ha=0.5 ml of concentrate+1.5 ml solvent). Each dissolved concentrate is then brought to a total of 20 milliliters using 0.05% Triton X 100 surfactant solution.
Pots to be treated are moist but not saturated. To each of four pots, five milliliters of the appropriate chemical solution is pipetted to the media surface making sure to avoid contact with the base of the plant. Immediately following chemical application, using a mist nozzle, the pot surface is wetted sufficiently to saturate the pot watering in the chemistry. The chemical application is done in the morning.
Nematode eggs, either SCN or RKN, are added to distilled water to create a concentration of 1000 vermiform eggs […]. At least four hours after chemical treatment the eggs are applied to the treated pots plus non-treated check plants. A small hole about 1 cm deep is punched into the pot surface. One milliliter of the nematode egg slurry is pipetted into the hole. Immediately afterwards the hole is gently covered. Watering of the test plants is then restricted to only water as needed to prevent wilt for a period of 24 hours. After the 24 hour restricted watering, normal sub-irrigation watering is done for the duration of the test.

[1] = system: soybean cyst nematode (SCN); assay: SCN greenhouse sand assay on soybean plants; format: in vivo; details: Glycine max, 672 h, read-out: percent control (cyst number reduction) relative to the control blank treatment
root knot nematode = assay: Pre-plant incorporated (PPI) greenhouse test of root knot nematode on cucumber plants; format: in vivo; details: for pest or weed control at 4000 g/ha: 4 kg/ha, read-out: percent control (galling reduction), 4 kg/ha rate; for pest or weed control at 8000 g/ha: 8 ka/ha, read-out: percent control (galling reduction), 8 ka/ha rate
Outline: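 Compound in acetone, diluted in 0.05% X100, was mixed into a field soil/sand mix at doses simulating 8, 4 and 2 kg/ha incorporated 15 cm deep, with 4 pots per treatment. Cucumber was seeded and root knot nematode eggs were applied 7, 14 or 21 days after soil treatment. Harvest followed 14 days after inoculation.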

[2] = 168 h, seven day pre-plant incorporated
[3] = 336 h, fourteen day pre-plant incorporated, test a
[4] = 504 h, twenty one day pre-plant incorporated
[5] = fourteen day pre-plant incorporated, test a

| Compound | induction of caspase-3 (caspase-3) | percent control (galling reduction) relative to the control blank treatment (root knot nematode (RKN); 0.05 kg/ha, test a) | percent control (galling reduction) relative to the control blank treatment (root knot nematode (RKN); 0.25 kg/ha, test a) [%] | percent control (galling reduction), Acetone 1 mg/kg (root knot nematode (RKN); Acetone formulation (10% acetone in 0.05% Triton X 100), 1 mg/kg) [%] | pest or weed control at 2000 g/ha ([1]; 2 kg/ha, test a) [%] | pest or weed control at 4000 g/ha (root knot nematode; [2]) [%] | pest or weed control at 8000 g/ha (root knot nematode; [2]) [%] | pest or weed control at 4000 g/ha (root knot nematode; [3]) [%] | pest or weed control at 4000 g/ha (root knot nematode; [4]) [%] | pest or weed control at 8000 g/ha (root knot nematode; [4]) [%] | percent control (galling reduction), 2 kg/ha rate (root knot nematode; [5]) | pest or weed control at 8000 g/ha (root knot nematode; [5]) [%] | percent control (galling reduction) relative to the control blank treatment (root knot nematode (RKN); 0.1 kg/ha, test a) [%] | percent control (galling reduction) relative to the control blank treatment (root knot nematode (RKN); 0.25 kg/ha, test c) [%] | pest or weed control at 100 g/ha ([1]; 0.1 kg/ha, test d) [%] | pest or weed control at 250 g/ha ([1]; 0.25 kg/ha, test d) [%] | pest or weed control at 4000 g/ha (root knot nematode; 336 h, fourteen day pre-plant incorporated, test b) [%] | pest or weed control at 8000 g/ha (root knot nematode; fourteen day pre-plant incorporated, test b) [%] |
| --- | --- | --- | --- | --- | --- | --- | --- | --- | --- | --- | --- | --- | --- | --- | --- | --- | --- | --- |
| c1ccc(-c2noc(-c3cccs3)n2)cc1 [compound 1822] | no induction of caspase-3 | 7^a percent | 60 | 94 | 100 | 99 | 99 | 97 | 82 | 95 | 67^a percent | 100 | – | – | – | – | – | – |
| Cc1cc(Cl)ccc1-c1noc(-c2ccco2)n1 [compound 5823] | no induction of caspase-3 | – | – | – | – | – | – | 98 | – | – | 85^a percent | 100 | 85 | 98 | 38 | 69 | 94 | 100 |
